Test results from patent US6518302B1, “Remedies” (Takara Shuzo Co., Ltd., priority 1999, dated 2003).

Experiments:
[1] = test system: HL-60 (ATCC CCL-240) cells; assay: Measurement of apoptotic cells using FACScan; type: cell-based, Human; details: HL-60 cells, cultured for 24 or 48 hours
Protocol: HL-60 (ATCC CCL-240) cells were cultured at 37° C. in RPMI 1640 medium (Bio Whittaker) containing 10% fetal calf serum (JRH) which had been treated at 56° C. for 30 minutes and suspended in RPMI 1640 medium at a concentration of 2.5×10^5 cells/4.5 ml. […] each of aqueous solutions of the compound (2) at a concentration of 10, 50 or 100 mM, the compound (7) at a concentration of 500, 1000 or 1500 μM, the compound (9) at a concentration of 750, 1500 or 3000 μM, the compound (11) at a concentration of 750, 1500 or 3000 μM, or the compound (14) at a concentration of 750, 1500 or 3000 μM was added to 4.5 ml of the suspension. The mixtures were incubated at 37° C. for 24 hours in the presence of 5% CO2. Measurement of apoptotic cells using FACScan as described in Saibo Kogaku, Bessatsu (Cell Technology, Suppl.) Jikken Protocol Series: Apoptosis Jikken Protocol (Experimental Protocol Series: Experimental Protocols for Apoptosis) (Shujun-sha) pp. 129-130 and analysis of DNA fragmentation as described in Bio Manual UP Series: […] Apoptosis Jikken-ho (Bio Manual UP Series: Current Experimental Methods for Apoptosis) (Yodo-sha) pp. 61-63 were carried out using cells cultured for 24 or 48 hours in the same manner as that described above.

[2] = test system: HL-60 (ATCC CCL-240) cells; assay: Apoptosis morphology in HL-60 cells under optical microscope; type: cell-based, Human; details: 24 hours
Protocol: HL-60 (ATCC CCL-240) cells were cultured at 37° C. in RPMI 1640 medium (Bio Whittaker) containing 10% fetal calf serum (JRH) which had been treated at 56° C. for 30 minutes and suspended in RPMI 1640 medium at a concentration of 2.5×10^5 cells/4.5 ml. […] each of aqueous solutions of the compound (2) at a concentration of 10, 50 or 100 mM, the compound (7) at a concentration of 500, 1000 or 1500 μM, the compound (9) at a concentration of 750, 1500 or 3000 μM, the compound (11) at a concentration of 750, 1500 or 3000 μM, or the compound (14) at a concentration of 750, 1500 or 3000 μM was added to 4.5 ml of the suspension. The mixtures were incubated at 37° C. for 24 hours in the presence of 5% CO2. The cultured cells were examined under an optical microscope.

[3] = test system: NO production in celiac macrophages; assay: NO production of celiac macrophages from orally dosed mice; type: in vivo; details: 1% suspension in olive oil, forced oral administration once a day, 12 times in 15 days, 10 or 30 ml/kg, ddY mice
Protocol: The compound (7) in Example 1 was suspended in olive oil (Nacalai Tesque) at a concentration of 1% to prepare a 1% suspension of the compound (7). The 1% suspension of the compound (7) prepared as described above was administered to ddY mice (Japan SLC, female, 7 weeks old) by forced oral administration once a day, 12 times in 15 days, at a dosage of 10 or 30 ml/kg. Tap water was similarly administered by forced oral administration as a control. Each group consisted of 3 mice. Thereafter, 4 ml of RPMI 1640 medium (Bio Whittaker, Code. 12-702F) containing 10% fetal calf serum was intraperitoneally injected. Media removed from 3 mice after extensive massage were combined to obtain celiac cells. The celiac cells were suspended in RPMI 1640 medium containing 10% fetal calf serum at a concentration of 10^6 cells/ml. 500 μl of the suspension was added to each well of a 48-well microtiter plate and the plate was incubated at 37° C. for 2 hours in the presence of 5% CO2. Adhesive cells obtained by removing the culture supernatant were used as celiac macrophages. 500 μl of fresh Dulbecco's modified Eagle's medium (Bio Whittaker, Code. 12-917F) without Phenol Red containing 10% fetal calf serum and 2 mM L-glutamine was added to each well. […] The concentration of NO2^− resulting from oxidation of NO in the medium was then measured as described in Example 6. […]

[4] = test system: PGE2 production in celiac macrophages; assay: PGE2 production of celiac macrophages from orally dosed mice; type: in vivo; details: 1% suspension in olive oil, forced oral administration once a day, 12 times in 15 days, 10 or 30 ml/kg, ddY mice
Protocol: The compound (7) in Example 1 was suspended in olive oil (Nacalai Tesque) at a concentration of 1% to prepare a 1% suspension of the compound (7). The 1% suspension of the compound (7) prepared as described above was administered to ddY mice (Japan SLC, female, 7 weeks old) by forced oral administration once a day, 12 times in 15 days, at a dosage of 10 or 30 ml/kg. Tap water was similarly administered by forced oral administration as a control. Each group consisted of 3 mice. Thereafter, 4 ml of RPMI 1640 medium (Bio Whittaker, Code. 12-702F) containing 10% fetal calf serum was intraperitoneally injected. Media removed from 3 mice after extensive massage were combined to obtain celiac cells. The celiac cells were suspended in RPMI 1640 medium containing 10% fetal calf serum at a concentration of 10^6 cells/ml. 500 μl of the suspension was added to each well of a 48-well microtiter plate and the plate was incubated at 37° C. for 2 hours in the presence of 5% CO2. Adhesive cells obtained by removing the culture supernatant were used as celiac macrophages. […] After the plate was incubated for additional 12 hours, the amount of prostaglandin E2 (PGE2) was measured. […] After cultivation, the amount of prostaglandin E2 in the culture supernatant was measured using Prostaglandin E2 ELISA Kit (Neogen, Code. 404110). […]

O=C[C@H](O)[C@H]1OC[C@@H](O)[C@@H]1OC(=O)c1ccccc1 [Compound (7), 4-O-benzoyl-3,6-anhydro-D-galactose]
final concentration at which apoptotic cells were observed [1]: ≥ 100 µM | final concentration at which condensation of nuclei, shrinking of cells and formation of apoptotic bodies were observed [2]: ≥ 100 µM | activity of inhibiting NO production in celiac macrophages (LPS and IFN-γ) [3]: remarkable activity of inhibiting NO production | activity of inhibiting PGE2 production in celiac macrophages (LPS) [4]: remarkable activity of inhibiting PGE2 production
